Structures are written as SMILES.

The experiment relates to HCV genotype-1a variant with glutamine 30 changed to glutamate in the NS5A protein. The format is cell-based. Particulars: test compound titrated with BMS-790052 fixed at 200 nM; genotype 1a Q30E replicon. In short, it runs like this:
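Synergy was assessed by combining several fixed amounts of an NS5A-targeting compound with a titration of the second compound of interest.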
On the technique in general: In antiviral work, replicon cells carry a viral genome segment that copies itself.

As to `CC(C)(C)[C@H](NC(=O)C(C)(O)C1(C)CC1)c1nc(-c2ccc(-c3ccc(-c4c[nH]c([C@@H](NC(=O)C(C)(O)C5(C)CC5)C(C)(C)C)n4)cc3)cc2)c[nH]1` (stereo partly drawn) [Compound L-93b], the “Fold-Synergistic 1a (Q30E)” value is greater than 100 fold.

As to `CC(C)(C)[C@H](NC(=O)[C@](C)(O)c1ccccc1)c1nc(-c2ccc(-c3ccc(-c4c[nH]c([C@@H](NC(=O)[C@](C)(O)c5ccccc5)C(C)(C)C)n4)cc3)cc2)c[nH]1` [Compound L-94], the “Fold-Synergistic 1a (Q30E)” value is reported as greater than 100 fold.

In the case of `CC(C)(C)[C@H](NC(=O)[C@@](C)(O)c1ccccc1)c1nc(-c2ccc(-c3ccc(-c4c[nH]c([C@@H](NC(=O)[C@@](C)(O)c5ccccc5)C(C)(C)C)n4)cc3)cc2)c[nH]1` [Compound L-95], the “Fold-Synergistic 1a (Q30E)” value is recorded as greater than 100 fold.

Take `CC(C)(C)[C@H](NC(=O)C1(NCC(F)(F)F)CC1)c1nc(-c2ccc(-c3ccc(-c4c[nH]c([C@@H](NC(=O)C5(NCC(F)(F)F)CC5)C(C)(C)C)n4)cc3)cc2)c[nH]1` [Compound L-96]: the “Fold-Synergistic 1a (Q30E)” value was greater than 100 fold.

Consider `CO[C@H](C)[C@H](NC(=O)[C@@]1(C)CCC(F)(F)CO1)c1nc(-c2ccc(-c3ccc(-c4c[nH]c([C@@H](NC(=O)[C@@]5(C)CCC(F)(F)CO5)[C@@H](C)OC)n4)cc3)cc2)c[nH]1` [Compound L-97], for which the “Fold-Synergistic 1a (Q30E)” value is reported as greater than 100 fold.

Regarding `CO[C@H](C)[C@H](NC(=O)C1CCC(F)(F)CC1)c1nc(-c2ccc(-c3ccc(-c4c[nH]c([C@@H](NC(=O)C5CCC(F)(F)CC5)[C@@H](C)OC)n4)cc3)cc2)c[nH]1` [Compound L-98], the “Fold-Synergistic 1a (Q30E)” value is reported as less than 10 fold.

As to `COCC(NC(=O)C1CCC(F)(F)CC1)c1nc(-c2ccc(-c3ccc(-c4c[nH]c(C(COC)NC(=O)C5CCC(F)(F)CC5)n4)cc3)cc2)c[nH]1` [Compound L-102], the “Fold-Synergistic 1a (Q30E)” value is listed as greater than 100 fold.

Take `COCC(NC(=O)C(=O)N1CCC(F)(F)CC1)c1nc(-c2ccc(-c3ccc(-c4c[nH]c(C(COC)NC(=O)C(=O)N5CCC(F)(F)CC5)n4)cc3)cc2)c[nH]1` [Compound L-103]: the “Fold-Synergistic 1a (Q30E)” value is recorded as greater than 10 fold.

For `COCC(NC(=O)C1(C(F)(F)F)CCC1)c1nc(-c2ccc(-c3ccc(-c4c[nH]c(C(COC)NC(=O)C5(C(F)(F)F)CCC5)n4)cc3)cc2)c[nH]1` [Compound L-104], the “Fold-Synergistic 1a (Q30E)” value is reported as greater than 100 fold.

Take `COCC(NC(=O)C(C)(C)C)c1nc(-c2ccc(-c3ccc(-c4c[nH]c(C(COC)NC(=O)C(C)(C)C)n4)cc3)cc2)c[nH]1` [Compound L-105]: the “Fold-Synergistic 1a (Q30E)” value is greater than 100 fold.

Regarding `O=C(N[C@H]1CCC[C@H]1c1nc(-c2ccc(-c3ccc(-c4c[nH]c([C@@H]5CCC[C@@H]5NC(=O)C5CCC(F)(F)CC5)n4)cc3)cc2)c[nH]1)C1CCC(F)(F)CC1` [Compound L-106], the “Fold-Synergistic 1a (Q30E)” value was greater than 100 fold.

In the case of `CC(C)(C)C(=O)N[C@H]1CCC[C@H]1c1nc(-c2ccc(-c3ccc(-c4c[nH]c([C@@H]5CCC[C@@H]5NC(=O)C(C)(C)C)n4)cc3)cc2)c[nH]1` [Compound L-107], the “Fold-Synergistic 1a (Q30E)” value was greater than 100 fold.

On to `CN(C)S(=O)(=O)N[C@H](c1nc(-c2ccc(-c3ccc(-c4c[nH]c([C@@H](NS(=O)(=O)N(C)C)C(C)(C)C)n4)cc3)cc2)c[nH]1)C(C)(C)C` [Compound L-116], for which the “Fold-Synergistic 1a (Q30E)” value was greater than 100 fold.

For `Cc1ccc(S(=O)(=O)NC(c2nc(-c3ccc(-c4ccc(-c5c[nH]c(C(NS(=O)(=O)c6ccc(C)cc6)C(C)(C)C)n5)cc4)cc3)c[nH]2)C(C)(C)C)cc1` [Compound L-117], the “Fold-Synergistic 1a (Q30E)” value was greater than 100 fold.

As to `CC(C)(C)[C@H](NS(=O)(=O)C1CCCCC1)c1nc(-c2ccc(-c3ccc(-c4c[nH]c([C@@H](NS(=O)(=O)C5CCCCC5)C(C)(C)C)n4)cc3)cc2)c[nH]1` [Compound L-118], the “Fold-Synergistic 1a (Q30E)” value is greater than 100 fold.

For `CC(C)(C)[C@H](NS(=O)(=O)N1CCOCC1)c1nc(-c2ccc(-c3ccc(-c4c[nH]c([C@@H](NS(=O)(=O)N5CCOCC5)C(C)(C)C)n4)cc3)cc2)c[nH]1` [Compound L-119], the “Fold-Synergistic 1a (Q30E)” value is on record as greater than 100 fold.
